{"source": "patent US11066379B2", "about": "(THE TEXAS A&M UNIVERSITY SYSTEM, priority 2018, dated 2021)", "key": {"[1]": {"molecular_target": "T1, active human CypA protein (Homo sapiens, UniProt P62937)", "T1 construct": "Active human CypA full-length protein was from Abcam; purchased Abcam", "T1 sequence (P62937 whole entry)": "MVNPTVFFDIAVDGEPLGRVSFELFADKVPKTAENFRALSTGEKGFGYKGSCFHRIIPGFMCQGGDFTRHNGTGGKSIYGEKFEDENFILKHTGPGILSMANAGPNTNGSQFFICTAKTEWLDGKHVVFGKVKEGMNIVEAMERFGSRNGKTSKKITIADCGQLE", "test": "Binding to immobilized CypA by surface plasmon resonance (SPR)", "settings": "for fold increase in KD toward CypA compared to gracilin A / affinity for CypA (association curves, KD): SPR; for immunosuppressive activity (SAR profile, FIG. 2) / affinity for CypA (association curves, KD): in words; for immunosuppressive activity (SAR profile, FIG. 2): CypA binding / IL-2 inhibition; for affinity for CypA (association curves, KD): various concentrations", "description": "Sensor surface activation and ligand immobilization were performed by using HBS-EP as running buffer at a flow rate of 5 μL/min and 25° C. CM5 sensor chips were used as surface where Cyp A or D was immobilized as ligand. The CM5 chip is a glass slide coated with a thin layer of gold with a matrix of carboxymethylated dextran covalently attached. The CM5 chip was activated using an amine coupling kit. […] After activation, the ligand, 100 μg/mL of active human CypA protein dissolved in sodium acetate 10 mM at pH 4.5 was added to be immobilized over a CM5 sensor chip. Finally ethanolamine-HCl was injected to deactivate the remaining active esters and to avoid non-specific binding. […] Once analytes were tested and interaction was observed, individual binding curves were analyzed by determining the kinetic constants of analytes-CypA binding, namely, the observed rate constant (Kobs), the association rate constant (Kass), the dissociation rate constant (Kdiss), and the kinetic equilibrium dissociation constant (KD). At equilibrium, by definition, […]. The pseudo-first order association rate constants Kobs (s^-1) were determined for each compound concentration by using the 1:1 Langmuir association model of BiaEvaluation software (BiaCore, Uppsala, Sweden). Then a representation of Kobs against the corresponding concentration of each compound was done. […] From the equation of these representations, Kass, M^-1 s^-1, gradient of the plot, and […]^-1, intercept of the plot was obtained. Within these two values, the kinetic equilibrium dissociation constant KD for each analyte-CypA binding was obtained. The duration of the sample injection was 2 min at 10 μL/min flow rate. Next, dissociation of bound molecules in HBS-EP buffer flow was studied. The bound drugs were removed from the chip surface before the next injection by adding 1 M Glycine-HCl at pH 2.5 for 1 min. The association phase was used to quantify the compound-CypA or D interactions. All experiments were performed four times."}, "[2]": {"tested_on": "Interleukin-2 (IL-2) production in human T lymphocytes", "test": "Interleukin-2 release in Con A-stimulated human T lymphocytes (ELISA)", "format": "cell-based", "description": "Then, cells were stimulated with Concanavalin A (Con A) at 50 μg/mL for 48 h to induce IL-2 release. The amount of IL-2 released to the culture medium was evaluated using Human IL-2 ELISA kit. Experiments were carried out four times."}, "[3]": {"tested_on": "human T lymphocytes", "test": "Viability of human T lymphocytes (MTT assay, 48 h)", "format": "cell-based", "settings": "for cell toxicity to T-cells: 0.1 μM, in words", "from_the_text": "(§1) The MTT (3-[4,5-dimethylthiazol-2-yl]-2,5-diphenyltetrazoliumbromide) assay was used to determine the cytotoxicity of gracilin derivatives in T lymphocytes (Burton, J. D. Methods Mol. Med., 2005, 110, 69-78) and SH-SY5Y cells and the protective effect of these compounds against H2O2 insult in neuroblastoma cells as previously described (Leiros, M., Alonso, E., Sanchez, J. A., Rateb, M. E., Ebel, R., Houssen, W. E., Jaspars, M., Alfonso, A. and Botana, L. M. ACS Chem. Neurosci., 2014, S, 71-80). Human T lymphocytes were cultured in 24 well plates at the concentration of 2.5×10^6 cells/mL and exposed to different compound concentrations (0.01, 0.1, 1 and 10 μM) added to the culture medium. Human T cells were maintained in the presence of the pure compound at 37° C. in humidified 5% CO2/95% air atmosphere for 48 h.\nSaponin was used as cellular death control and its absorbance was subtracted from the other data. After the incubation period with compounds, assay was performed. First cells were centrifuged (1500 rpm, 5 min, 4° C.). The pellets were resuspended in saline solution with MTT (250 μg/mL) and then incubated at 37° C. during 30 min. After washing off excess MTT twice with saline solution, cells were disaggregated with H2O and sonicated for 1 min and the absorbance of the colored formazan salt was measured at 595 nm in a spectrophotometer plate reader. All experiments were performed three times."}, "[4]": {"tested_on": "SH-SY5Y cells", "test": "Cellular toxicity in SH-SY5Y cells (MTT, 24 h)", "format": "cell-based", "settings": "SH-SY5Y, 24 h incubation; read-out: IC50 (cellular toxicity)", "from_the_text": "as §1\n(§2) SH-SY5Y cells were seeded in 96-well plates at a density of 2.5×10^5 cells/mL and allowed to adhere for 24 h. At first, cells were treated only with compounds at concentrations ranging from 10-0.01 μM for 24 h to determine their possible cytotoxic effects. Experiments were carried out three times. For neuroprotective experiments, cells were treated with compounds at non-toxic concentrations (1 μM→1 nM) and 150 μM H2O2 for 6 h. Briefly, cells were washed three times with saline solution and 200 μL of MTT (500 μg/mL) dissolved in saline buffer were added to each well. Following 1 h of incubation at 37° C., the cells were disaggregated with sodium dodecyl sulphate at 5%.\nAbsorbance of formazan crystals was measured at 595 nm with a spectrophotometer plate reader. Saponin was used as death control and its absorbance was subtracted from the other data. All experiments were performed four times."}, "[5]": {"tested_on": "SH-SY5Y cells", "test": "Neuroprotection against H2O2 toxicity, cell viability by MTT", "format": "cell-based, human", "settings": "150 μM H2O2 co-treatment 6 h; 0.01, 0.1 and 1 μM", "description": "as §2, with “5%. Absorbance of formazan crystals was measured at 595 nm with a spectrophotometer plate reader. Saponin was used as death control and its absorbance was subtracted from the other data. All experiments were performed four times.” for “5%.”"}, "[6]": {"tested_on": "SH-SY5Y cells", "test": "Intracellular ROS levels (carboxy-H2DCFDA) after H2O2", "format": "cell-based, human", "settings": "150 μM H2O2 co-treatment 6 h", "description": "Intracellular levels of reactive oxygen species (ROS) were determined with carboxy-H2DCFDA (5-(and-6)-carboxy-2′,7′-dichlorodihydrofluorescein diacetate). This dye diffuses through the cellular membrane and is converted by cellular esterases to carboxy-H2DCFH (non-fluorescent). When carboxy-H2DCFH is oxidized by ROS, it becomes fluorescent (Halliwell, B. and Whiteman, M. Br. J. Pharmacol., 2004, 142, 231-255). Cells were seeded at a density of 2.5×10^5 cells/mL in 96-well plates and allowed to attach for 24 h. Following treatment with compounds at various concentrations (1 μM→1 nM) and 150 μM H2O2 for 6 h, SH-SY5Y cells were washed twice with serum-free culture medium. Then, carboxy-H2DCFDA 20 μM dissolved in serum-free culture medium was added to each well and the cells were incubated for 1 h at 37° C. After this incubation, the medium with the fluorescent dye was replaced with PBS and the plate was incubated for 30 min at 37° C. Fluorescence was read at 527 nm, with an excitation wavelength of 495 nm. All experiments were performed four times."}}}
{"compound": "(0R,3S,3aR,7aS)-6-((R)-1,3,3-trimethyl-cyclohexyl)-1,3,3a,4,5,7a-hexahydroisobenzofuran-1,3-diyl diacetate [Compound 23d]", "values": [{"measurement": "fold increase in KD toward CypA compared to gracilin A", "setting": "[1]", "value": "~1000", "unit": "fold"}, {"measurement": "Inhibition of IL-2 production", "setting": "[2]; 2 h pre-treatment at non-toxic concentration, Con A 50 μg/mL 48 h", "value": 46, "unit": "%"}, {"measurement": "impact on T-cell viability", "setting": "[3]", "value": "no impact on cell viability"}, {"measurement": "IC50", "setting": "[4]", "value": 1400, "unit": "nM"}]}
{"compound": "(1S,3R,3aS,7aR)-5-((S)-1,3,3-trimethylcyclohexyl)-1,3,3a,4,7,7a-hexahydroisoben-zofuran-1,3-diyl diacetate [Compound 23a]", "values": [{"measurement": "fold increase in KD toward CypA compared to gracilin A", "setting": "[1]", "value": "~1000", "unit": "fold"}, {"measurement": "decrease in cell viability", "setting": "[3]", "value": "~10", "unit": "%"}, {"measurement": "IC50", "setting": "[4]", "value": 1400, "unit": "nM"}, {"measurement": "protection of cell viability against H2O2 insult", "setting": "[5]", "value": "protected cells against H2O2 insult at almost all concentrations"}, {"measurement": "ROS levels", "setting": "[6]", "value": "diminishing ROS at two or three concentrations"}]}
{"compound": "CC1(C2=C[C@@H]3COC(=O)[C@@H]3CC2)CCCCC1", "note": "[Compound 26, (3aS,7aR)-5-(1-methylcyclohexyl)-3a,6,7,7a-tetrahydroisobenzofuran-1(3H)-one]", "values": [{"measurement": "immunosuppressive activity (SAR profile, FIG. 2)", "setting": "[1]", "value": "inactive"}]}
{"compound": "CC(=O)O[C@@H]1OC[C@H]2CC(=O)CC[C@H]21", "note": "[Compound 24, (1S,3aS,7aR)-5-oxooctahydroisobenzofuran-1-yl acetate]", "values": [{"measurement": "immunosuppressive activity (SAR profile, FIG. 2)", "setting": "[1]", "value": "inactive"}]}
{"compound": "CC(=O)OC1CCC(OC(C)=O)O1", "note": "(mixture of isomers) [(±)-9, cis- and trans-2,5-tetrahydrofuran-2,5-diyl diacetate]", "values": [{"measurement": "affinity for CypA (association curves, KD)", "setting": "[1]", "value": "no affinity"}, {"measurement": "Inhibition of IL-2 production", "setting": "[2]; in words", "value": "did not inhibit IL-2 production"}, {"measurement": "cell toxicity to T-cells", "setting": "[3]", "value": "did not show signs of cell toxicity"}]}
{"compound": "CC(=O)OC1OC(OC(C)=O)[C@@H]2CCC=C[C@H]12", "note": "(stereo partly drawn) [Compound 18, (3aR,7aS)-1,3,3a,4,5,7a-hexahydroisobenzofuran-1,3-diyl diacetate]", "values": [{"measurement": "affinity for CypA (association curves, KD)", "setting": "[1]", "value": "no affinity"}, {"measurement": "Inhibition of IL-2 production", "setting": "[2]; in words", "value": "did not inhibit IL-2 production"}, {"measurement": "cell toxicity to T-cells", "setting": "[3]", "value": "did not show signs of cell toxicity"}]}
{"compound": "CC(=O)O[C@H]1O[C@@H](OC(C)=O)[C@@H]2CCC(=O)C[C@H]12", "note": "[Compound 17, (1S,3R,3aS,7aR)-5-oxooctahydroisobenzofuran-1,3-diyl diacetate]", "values": [{"measurement": "affinity for CypA (association curves, KD)", "setting": "[1]", "value": "no affinity"}, {"measurement": "Inhibition of IL-2 production", "setting": "[2]; in words", "value": "did not inhibit IL-2 production"}, {"measurement": "cell toxicity to T-cells", "setting": "[3]", "value": "did not show signs of cell toxicity"}]}
